Patent US12145913B2, “Inhibition of Olig2 activity” (Curtana Pharmaceuticals, Inc., priority 2016, dated 2024)

Tested on: GBM8 human glioblastoma cells
Assay: GBM8 viability assay (Cell Titer Glo)
Assay type: cell-based
Conditions: 72 h, luminescence
Procedure: Cell culture medium was prepared from a NSA proliferation kit (Neurocult) and NeuroCult supplements (Stemcell Tech Cat. #05751) and treated with 20 μL of 10 μg/mL rh EGF, 10 μL of 10 μg/mL rh bFGF and 10 μL of 0.2% Heparin. In this medium, human glioblastoma cells were cultured in ultra-low attachment tissue culture flasks until 1×10^6 cells ml was achieved (GBM4 and GBM8 are distinct neurosphere cell cultures derived from these human patient tissues). GBM4 and GBM8 cells were dissociated and 10 mL of media containing 4000 human glioblastoma cells per 90 μL were transferred to an ultra-low binding 96-well plate and incubated at 37° C. overnight. On the following day, 10 μL of a 1% DMSO solution of test compound in assay medium was added to wells containing the cell suspension and the mixture incubated at 37° C. for 3 days. At this time, the plate was removed from the incubator and allowed to reach room temperature. After about 30 minutes, 50 μL of Cell Titer Glo solution was added to each well and the plate shaken for 1 minute at low speed. After 10 minutes luminescence was recorded using a Tecan Safire2 reader.
Reduction in luminescence compared to DMSO only control wells was used to determine the percentage inhibition of cell growth. IC50s were calculated using the % inhibition of luminescence for serial dilutions of compounds fitted to a 4-parameter fit within the Prism (San Diego) curve fitting program. Tables 1 (compounds 3-188) and 2 (compounds 190-212) show the GBM4 IC50 and GBM8 IC50 for compounds described herein.

SMILES	IC50 (Table 1, 3 days incubation) [nM]	IC50 (Table 2, 3 days incubation) [nM]
Cc1cc(NCCCN(C)C)nc(NC(=O)Nc2ccc(-c3ccccc3)cc2)n1 [Compound 125, 1-([1,1′-biphenyl]-4-yl)-3-(4-((3-(dimethylamino)propyl)amino)-6-methylpyrimidin-2-yl)urea]	< 500	–
CC(=O)NCCCNc1cc(C)nc(NC(=O)Nc2ccc3occc3c2)n1 [Compound 85, N-(3-((2-(3-(benzofuran-5-yl)ureido)-6-methylpyrimidin-4-yl)amino)propyl)acetamide]	< 500	–
COCCNc1cc(C)nc(NC(=O)Nc2ccc3cnccc3c2)n1 [Compound 57]	< 500	–
Cc1cc(NCCCN(C)C)nc(NC(=O)Nc2ccc3occc3c2)n1 [Compound 80, 1-(benzofuran-5-yl)-3-(4-((3-(dimethylamino)propyl)amino)-6-methylpyrimidin-2-yl)urea]	< 500	–
CC(C)c1cc(NO)nc(NC(=O)Nc2ccc(OC(F)(F)F)cc2)n1 [Compound 199, 1-(4-(hydroxyamino)-6-isopropylpyrimidin-2-yl)-3-(4-(trifluoromethoxy)phenyl)urea]	–	500 to 5000
Cc1cc(NCCNS(C)(=O)=O)nc(NC(=O)Nc2ccc3ccccc3n2)n1 [Compound 102, N-(2-((6-methyl-2-(3-(quinolin-2-yl)ureido)pyrimidin-4-yl)amino)ethyl)methanesulfonamide]	500 to 5000	–
Cc1cc(NCCNS(C)(=O)=O)nc(NC(=O)Nc2cc3ccccc3cn2)n1 [Compound 93, N-(2-((2-(3-(isoquinolin-3-yl)ureido)-6-methylpyrimidin-4-yl)amino)ethyl)methanesulfonamide]	500 to 5000	–
CNCCCNc1cc(C2CC2)nc(NC(=O)Nc2ccc(Cl)c(Cl)c2)n1 [Compound 206, 1-(4-cyclopropyl-6-((3-(methylamino)propyl)amino)pyrimidin-2-yl)-3-(3,4-dichlorophenyl)urea]	–	5000 to 30000
Cc1cc(NCCCN)nc(NC(=O)Nc2ccc3ncccc3c2)n1 [Compound 108, 1-(4-((3-aminopropyl)amino)-6-methylpyrimidin-2-yl)-3-(quinolin-6-yl)urea]	500 to 5000	–
Cc1cc(NCCN(C)C)nc(NC(=O)Nc2ccc3ccccc3c2)n1 [Compound 6]	< 500	–
CCCNc1cc(C)nc(NC(=O)Nc2ccc3ccccc3c2)n1 [Compound 12]	< 500	–
Cc1cc(NO)nc(NC(=O)Nc2ccc3cnccc3c2)n1 [Compound 62, 1-(4-(hydroxyamino)-6-methylpyrimidin-2-yl)-3-(isoquinolin-6-yl)urea]	< 500	–
Cc1cc(NCCCN(C)C)nc(NC(=O)Nc2cc3ccccc3cn2)n1 [Compound 89, 1-(4-((3-(dimethylamino)propyl)amino)-6-methylpyrimidin-2-yl)-3-(isoquinolin-3-yl)urea]	5000 to 30000	–
CNCCCNc1cc(C(C)C)nc(NC(=O)Nc2ccc(Cl)c(Cl)c2)n1 [Compound 184, 1-(3,4-dichlorophenyl)-3-(4-isopropyl-6-((3-(methyl-amino)propyl)amino)pyrimidin-2-yl)urea]	500 to 5000	–
CC(C)c1cc(NO)nc(NC(=O)Nc2ccc3ccccc3c2)n1 [Compound 187, 1-(4-(hydroxyamino)-6-isopropylpyrimidin-2-yl)-3-(naphthalen-2-yl)urea]	500 to 5000	–
CNCCCNc1cc(C2CC2)nc(NC(=O)Nc2ccc(OC(F)(F)F)cc2)n1 [Compound 211, 1-(4-cyclopropyl-6-((3-(methylamino)propyl)amino)pyrimidin-2-yl)-3-(4-(trifluoromethoxy)phenyl)urea]	–	500 to 5000
CC(=O)NCCCNc1cc(C)nc(NC(=O)Nc2cc3ccccc3cn2)n1 [Compound 92, N-(3-((2-(3-(isoquinolin-3-yl)ureido)-6-methylpyrimidin-4-yl)amino)propyl)acetamide]	500 to 5000	–
Cc1cc(NCCCN(C)C)nc(NC(=O)Nc2ccc(OC(C)C)cc2)n1 [Compound 136, 1-(4-((3-(dimethylamino)propyl)amino)-6-methylpyrimidin-2-yl)-3-(4-isopropoxyphenyl)urea]	< 500	–
Cc1cc(NCCN(C)C)nc(NC(=O)Nc2ccc3occc3c2)n1 [Compound 81, 1-(benzofuran-5-yl)-3-(4-((2-(dimethylamino)ethyl)amino)-6-methylpyrimidin-2-yl)urea]	< 500	–
CNCCCNc1cc(C)nc(NC(=O)Nc2ccc3ccccc3c2)n1 [Compound 31, 1-(4-methyl-6-((3-(methylamino)propyl)amino)pyrimidin-2-yl)-3-(naphthalen-2-yl)urea]	< 500	–
CN(C)CCCNc1cc(C2CC2)nc(NC(=O)Nc2ccc(Cl)c(Cl)c2)n1 [Compound 204, 1-(4-cyclopropyl-6-((3-(dimethylamino)propyl)amino)-pyrimidin-2-yl)-3-(3,4-dichlorophenyl)urea]	–	500 to 5000

SMILES	IC50 (Table 1, 3 days incubation) [nM]	IC50 (Table 2, 3 days incubation) [nM]
Cc1cc(NCCCN(C)C)nc(NC(=O)Nc2cccc(-c3ccccc3)c2)n1 [Compound 131, 1-([1,1′-biphenyl]-3-yl)-3-(4-((3-(dimethylamino)propyl)amino)-6-methylpyrimidin-2-yl)urea]	500 to 5000	–
O=C(Nc1ccc(Cl)c(Cl)c1)Nc1nccc(NO)n1 [Compound 158, 1-(3,4-dichlorophenyl)-3-(4-(hydroxyamino)pyrimidin-2-yl)urea]	500 to 5000	–
CC(=O)NCCCNc1cc(C)nc(NC(=O)Nc2ccc3ccccc3n2)n1 [Compound 100, N-(3-((6-methyl-2-(3-(quinolin-2-yl)ureido)pyrimidin-4-yl)amino)propyl)acetamide]	500 to 5000	–
Cc1cc(N(C)C)nc(NC(=O)Nc2ccc3ccccc3c2)n1 [Compound 21]	500 to 5000	–
Cc1cc(NCCc2ccc[nH]2)nc(NC(=O)Nc2ccc3ccccc3c2)n1 [Compound 24, 1-(4-((2-(1H-pyrrol-2-yl)ethyl)amino)-6-methylpyrimidin-2-yl)-3-(naphthalen-2-yl)urea]	< 500	–
CONc1cc(C)nc(NC(=O)Nc2ccc3ccccc3c2)n1 [Compound 44, 1-(4-(methoxyamino)-6-methylpyrimidin-2-yl)-3-(naphthalen-2-yl)urea]	< 500	–
Cc1cc(NCCCNS(C)(=O)=O)nc(NC(=O)Nc2ccc3cnccc3c2)n1 [Compound 71, N-(3-((2-(3-(isoquinolin-6-yl)ureido)-6-methylpyrimidin-4-yl)amino)propyl)methanesulfonamide]	< 500	–
CC(=O)NCCCNc1cc(C)nc(NC(=O)Nc2ccc3ncccc3c2)n1 [Compound 109, N-(3-((6-methyl-2-(3-(quinolin-6-yl)ureido)pyrimidin-4-yl)amino)propyl)acetamide]	500 to 5000	–
Cc1cc(NCCCCN)nc(NC(=O)Nc2ccc3ccccc3c2)n1 [Compound 10]	< 500	–
Cc1cc(NCCN(C)C)nc(NC(=O)Nc2ccc3ccccc3n2)n1 [Compound 97, 1-(4-((2-(dimethylamino)ethyl)amino)-6-methylpyrimidin-2-yl)-3-(quinolin-2-yl)urea]	5000 to 30000	–
Cc1cc(NO)nc(NC(=O)Nc2ccc(OC(F)(F)F)cc2)n1 [Compound 147, 1-(4-(hydroxyamino)-6-methylpyrimidin-2-yl)-3-(4-(trifluoromethoxy)phenyl)urea]	< 500	–
CNCCNc1cc(C)nc(NC(=O)Nc2ccc3ccccc3c2)n1 [Compound 30, 1-(4-methyl-6-((2-(methylamino)ethyl)amino)pyrimidin-2-yl)-3-(naphthalen-2-yl)urea]	< 500	–
O=C(Nc1ccc(OC(F)(F)F)cc1)Nc1nc(NO)cc(C2CC2)n1 [Compound 212, 1-(4-cyclopropyl-6-(hydroxyamino)pyrimidin-2-yl)-3-(4-(trifluoromethoxy)phenyl)urea]	–	500 to 5000
Cc1cc(NCCO)nc(NC(=O)Nc2ccc(OC(F)(F)F)cc2)n1 [Compound 145, 1-(4-((2-hydroxyethyl)amino)-6-methylpyrimidin-2-yl)-3-(4-(trifluoromethoxy)phenyl)urea]	< 500	–
O=C(Nc1ccc(Cl)c(Cl)c1)Nc1nc(NO)cc(C2CC2)n1 [Compound 207, 1-(4-cyclopropyl-6-(hydroxyamino)pyrimidin-2-yl)-3-(3,4-dichlorophenyl)urea]	–	500 to 5000
CC(=O)NCCNc1cc(C)nc(NC(=O)Nc2ccc3cnccc3c2)n1 [Compound 67, N-(2-((2-(3-(isoquinolin-6-yl)ureido)-6-methylpyrimidin-4-yl)amino)ethyl)acetamide]	< 500	–
Cc1cc(NCCCN)nc(NC(=O)Nc2ccc3ccncc3c2)n1 [Compound 117, 1-(4-((3-aminopropyl)amino)-6-methylpyrimidin-2-yl)-3-(isoquinolin-7-yl)urea]	500 to 5000	–
Cc1cc(NCCN)nc(NC(=O)Nc2cc3ccccc3cn2)n1 [Compound 90, 1-(4-((2-aminoethyl)amino)-6-methylpyrimidin-2-yl)-3-(isoquinolin-3-yl)urea]	500 to 5000	–
Cc1cc(NCC2CCCNC2)nc(NC(=O)Nc2ccc3ccccc3c2)n1 (stereo not drawn) [Compound 32, 1-(4-methyl-6-((piperidin-3-ylmethyl)amino)pyrimidin-2-yl)-3-(naphthalen-2-yl)urea]	< 500	–
Cc1cc(NCCN)nc(NC(=O)Nc2ccc3ccccc3c2)n1 [Compound 5, 1-(4-((2-aminoethyl)amino)-6-methylpyrimidin-2-yl)-3-(naphthalen-2-yl)urea]	< 500	–
Cc1cc(NCCOCCO)nc(NC(=O)Nc2ccc3ccccc3c2)n1 [Compound 13]	< 500	–
